Test results: the supplement of paper PMC10307832

Tests used:
Assay in all cases: relative viability (nuclei count vs DMSO), 5 days (fraction); higher = more cells survive
[1] = compound: COc1cc([C@@H]2c3cc4c(cc3[C@@H](O[C@@H]3O[C@@H]5CO[C@@H](C)O[C@H]5[C@H](O)[C@H]3O)[C@H]3COC(=O)[C@H]23)OCO4)cc(OC)c1O [Etoposide] + CC(C)C[C@H](NC(=O)[C@H](Cc1ccccc1)NC(=O)c1cnccn1)B(O)O [Bortezomib] (partner 0.002 µM)
Method in brief: (§1)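 After 5 days of treatment, lung cancer cells in 1536-well plates were fixed and stained in a single step (final 0.05% Triton X-100, 1% formaldehyde, 1 ug/ml Hoechst) and their nuclei counted on 4× images. Treatment had been applied by pin tool the day after seeding as one drug alone or as a fixed anchor-drug dose with five library-drug doses (not always all listed) in √10 steps. Relative viability is the nuclei count of treated wells divided by that of vehicle wells, and values are medians of duplicate plates.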

[2] = compound: COc1cc([C@@H]2c3cc4c(cc3[C@@H](O[C@@H]3O[C@@H]5CO[C@@H](C)O[C@H]5[C@H](O)[C@H]3O)[C@H]3COC(=O)[C@H]23)OCO4)cc(OC)c1O [Etoposide] + C[C@]1(O)C[C@@H](c2nc(-c3ccc4ccc(-c5ccccc5)nc4c3)c3c(N)nccn32)C1 [Linsitinib] (partner 1 µM)
Method in brief: as §1

[3] = compound: CC1=C(N=C(N=C1N)[C@H](CC(=O)N)NC[C@@H](C(=O)N)N)C(=O)N[C@@H]([C@H](C2=CN=CN2)OC3C(C(C(C(O3)CO)O)O)OC4C(C(C(C(O4)CO)O)OC(=O)N)O)C(=O)N[C@H](C)[C@H]([C@H](C)C(=O)N[C@@H]([C@@H](C)O)C(=O)NCCC5=NC(=CS5)C6=NC(=CS6)C(=O)NCCC[S+](C)C)O [Bleomycin] + O=C(c1cc(Cc2n[nH]c(=O)c3ccccc23)ccc1F)N1CCN(C(=O)C2CC2)CC1 [Olaparib] (partner 8 µM); conditions: main component drawn
Method in brief: as §1

[4] = compound: CC1=C(N=C(N=C1N)[C@H](CC(=O)N)NC[C@@H](C(=O)N)N)C(=O)N[C@@H]([C@H](C2=CN=CN2)OC3C(C(C(C(O3)CO)O)O)OC4C(C(C(C(O4)CO)O)OC(=O)N)O)C(=O)N[C@H](C)[C@H]([C@H](C)C(=O)N[C@@H]([C@@H](C)O)C(=O)NCCC5=NC(=CS5)C6=NC(=CS6)C(=O)NCCC[S+](C)C)O [Bleomycin] + Cc1nc(NC(=O)N2CCC[C@H]2C(N)=O)sc1-c1ccnc(C(C)(C)C(F)(F)F)c1 [Alpelisib] (partner 2 µM); conditions: main component drawn
Method in brief: as §1

| Cell Line | relative viability ([1]; first compound 0.01 µM) | relative viability ([1]; first compound 0.03162 µM) | relative viability ([1]; first compound 0.1 µM) | relative viability ([1]; first compound 0.3162 µM) | relative viability ([1]; first compound 1 µM) | relative viability ([2]; first compound 0.01 µM) | relative viability ([2]; first compound 0.03162 µM) | relative viability ([2]; first compound 0.1 µM) | relative viability ([2]; first compound 0.3162 µM) | relative viability ([2]; first compound 1 µM) | relative viability ([3]; first compound 0.01 µM) | relative viability ([3]; first compound 0.03162 µM) | relative viability ([3]; first compound 0.1 µM) | relative viability ([3]; first compound 0.3162 µM) | relative viability ([3]; first compound 1 µM) | relative viability ([4]; first compound 0.01 µM) | relative viability ([4]; first compound 0.03162 µM) | relative viability ([4]; first compound 0.1 µM) | relative viability ([4]; first compound 0.3162 µM) | relative viability ([4]; first compound 1 µM) |
| --- | --- | --- | --- | --- | --- | --- | --- | --- | --- | --- | --- | --- | --- | --- | --- | --- | --- | --- | --- | --- |
| NCI-H1703 | 0.433 | 0.519 | 0.294 | 0.22 | 0.198 | 0.672 | 1.04 | 0.642 | 0.641 | 0.329 | 0.55 | 0.508 | 0.289 | 0.309 | 0.166 | 0.32 | 0.295 | 0.278 | 0.173 | 0.196 |
| LCLC-103H | 1.1 | 1.24 | 0.93 | 0.956 | 0.978 | 0.998 | 1.12 | 0.93 | 1.02 | 0.902 | 0.717 | 0.735 | 0.724 | 0.56 | 0.384 | 0.92 | 0.967 | 1.05 | 0.934 | 0.4 |
| RERF-LC-KJ | 1.04 | 1.2 | 0.986 | 1.03 | 0.923 | 0.84 | 0.895 | 0.866 | 0.769 | 0.562 | 0.425 | 0.385 | 0.325 | 0.162 | 0.16 | 0.58 | 0.589 | 0.53 | 0.253 | 0.266 |
| BEN | 0.728 | 0.869 |  | 0.565 | 0.6 | 0.695 | 0.983 |  | 0.78 | 0.681 | 0.97 | 1.03 | 0.899 | 0.809 | 0.733 | 1.01 | 0.921 | 0.937 | 0.762 | 0.738 |
| NCI-H1666 | 0.949 | 0.71 | 0.528 | 0.294 | 0.242 | 0.906 | 0.765 | 0.523 | 0.362 | 0.333 | 0.65 | 0.692 | 0.644 | 0.54 | 0.599 | 0.711 | 0.708 | 0.625 | 0.264 | 0.354 |
| LC-2-ad | 0.9 | 1.08 | 0.977 | 0.742 | 0.209 | 0.809 | 0.976 | 0.863 | 0.624 | 0.248 | 0.574 | 0.431 | 0.287 | 0.235 | 0.219 | 0.699 | 0.66 | 0.307 | 0.126 | 0.106 |
| SW 1573 | 1 | 0.977 | 0.608 | 0.449 | 0.186 | 0.884 | 0.76 | 0.646 | 0.327 | 0.277 | 0.291 | 0.336 | 0.292 | 0.153 | 0.123 | 0.643 | 0.64 | 0.596 | 0.302 | 0.342 |
| COR-L 105 | 0.613 | 1.23 | 0.502 | 0.7 | 0.495 | 0.874 | 0.958 | 1.02 | 0.769 | 0.713 | 0.614 | 0.518 | 0.526 | 0.417 | 0.352 | 0.95 | 0.949 | 0.794 | 0.413 | 0.317 |
| NCI-H1975 | 0.402 | 0.386 | 0.411 | 0.322 | 0.177 | 0.973 | 1.07 | 0.902 | 0.67 | 0.345 | 0.565 | 0.387 | 0.394 | 0.169 | 0.181 | 0.607 | 0.616 | 0.555 | 0.254 | 0.232 |
| Calu-6 | 1.06 | 0.973 | 1.03 | 0.693 | 0.405 | 0.914 | 1.01 | 0.819 | 0.758 | 0.39 | 0.375 | 0.343 | 0.254 | 0.127 | 0.137 | 0.63 | 0.603 | 0.333 | 0.181 | 0.177 |
| NCI-H1993 | 0.954 | 1.12 | 0.631 | 0.919 | 0.473 | 0.81 | 0.692 | 0.7 | 0.662 | 0.537 | 0.763 | 0.728 | 0.645 | 0.353 | 0.43 | 0.648 | 0.642 | 0.618 | 0.536 | 0.522 |
| SK-LU-1 | 1.44 | 1.11 | 0.765 | 0.515 | 0.272 | 1.03 | 1.03 | 0.829 | 0.401 | 0.281 | 0.38 | 0.436 | 0.397 | 0.307 | 0.29 | 0.889 | 0.735 | 0.902 | 0.502 | 0.412 |
| NCI-H2347 | 1.06 | 1.32 | 0.716 | 0.572 | 0.515 | 1.23 | 1.08 | 0.592 | 0.523 | 0.408 | 0.581 | 0.573 | 0.466 | 0.45 | 0.413 | 0.892 | 1.05 | 0.997 | 0.51 | 0.478 |
| HCC-366 | 1.04 | 1.03 | 0.518 | 0.135 | 0.0399 | 0.474 | 0.678 | 0.337 | 0.166 | 0.0566 | 0.157 | 0.134 | 0.126 | 0.0346 | 0.0334 | 0.345 | 0.253 | 0.212 | 0.042 | 0.035 |
| EMC-BAC-2 | 1.07 | 1.03 | 0.729 | 0.452 | 0.196 | 0.719 | 0.803 | 0.58 | 0.273 | 0.186 | 0.35 | 0.428 | 0.404 | 0.324 | 0.221 | 0.647 | 0.643 | 0.653 | 0.355 | 0.232 |
